Assay results: ChEMBL document CHEMBL1201862, “PubChem BioAssay data set” (2004)
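Step 1: Grow cells in 96-well plates. Step 2: Expose to compound for 48 hours at 5 concentrations. Step 3: Interpolate endpoints linearly; if unreached, use highest concentration. At the GI50, growth is halved.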 Active and inactive are the calls of the source. Cut-off read from the data, not from the text of the source: active = GI50 up to about 1.1 µM and inactive = higher.

Legend:
Assay in all cases: inhibition of tumour cell growth, NCI panel, 48 h
[1] = test system: CCRF-CEM
[2] = test system: SW-620
[3] = test system: A498
[4] = test system: HCT-15
[5] = test system: MDA-MB-231
[6] = test system: CAKI-1
[7] = test system: T47D
[8] = test system: K562
[9] = test system: IGROV-1
[10] = test system: HL-60
[11] = test system: SNB-75
[12] = test system: NCI-H226
[13] = test system: SR
[14] = test system: UACC-257
[15] = test system: MOLT-4
[16] = test system: OVCAR-5
[17] = test system: LOX IMVI
[18] = test system: OVCAR-3
[19] = test system: UO-31
[20] = test system: Malme-3M

SMILES | GI50 [1] | GI50 [2] | GI50 [3] | GI50 [4] [µM] | GI50 [5] | GI50 [6] | GI50 [7] | GI50 [8] | GI50 [9] | GI50 [10] | GI50 [11] | GI50 [12] | GI50 [13] | GI50 [14] | GI50 [15] | GI50 [16] | GI50 [17] | GI50 [18] | GI50 [19] | GI50 [20]
O=[N+]([O-])c1ccc2[nH]ncc2c1Cl | 46 µM (inactive) | 31.6 µM (inactive) | 74.6 µM (inactive) | 23.3 | 0.0108 µM (active) | > 10 µM (inactive) | 17.5 µM (inactive) | 18.3 µM (inactive) | 18 µM (inactive) | 29.8 µM (inactive) | 35.9 µM (inactive) | 8.69 µM (inactive) | 1.03 µM (active) | 31.2 µM (inactive) | 22.8 µM (inactive) | 23.6 µM (inactive) | 17.5 µM (inactive) | 33.8 µM (inactive) | – | –
SC1CCCN(Cc2ccccc2)C1 (stereo unspecified) | – | 28.2 µM (inactive) | 65.2 µM (inactive) | 38.2 | 56.5 µM (inactive) | 74.1 µM (inactive) | 27.5 µM (inactive) | 23.8 µM (inactive) | 59.8 µM (inactive) | 34.8 µM (inactive) | > 100 µM (inactive) | > 100 µM (inactive) | 27.9 µM (inactive) | 32.4 µM (inactive) | 26.5 µM (inactive) | > 100 µM (inactive) | 16.5 µM (inactive) | > 100 µM (inactive) | 54.2 µM (inactive) | –
CC(/C=C/c1ccccc1)=N\NC(N)=S | 49.7 µM (inactive) | 50.4 µM (inactive) | 22.2 µM (inactive) | 27.4 | 34.6 µM (inactive) | 35.7 µM (inactive) | 11.8 µM (inactive) | – | 21 µM (inactive) | 15.1 µM (inactive) | – | 80 µM (inactive) | 23.2 µM (inactive) | 47.9 µM (inactive) | 24.4 µM (inactive) | 58.5 µM (inactive) | > 100 µM (inactive) | 24.5 µM (inactive) | 32.1 µM (inactive) | 45.7 µM (inactive)
CC1=C(C(=O)OCCO[N+](=O)[O-])C(c2cccc([N+](=O)[O-])c2)C(C(=O)OC(C)C)=C(C)N1 (stereo unspecified) | 29.9 µM (inactive) | 22.3 µM (inactive) | 19.4 µM (inactive) | 14.1 | 13.3 µM (inactive) | 17.6 µM (inactive) | 15.6 µM (inactive) | 18.2 µM (inactive) | 14 µM (inactive) | > 100 µM (inactive) | – | 8.95 µM (inactive) | 24.8 µM (inactive) | 12.3 µM (inactive) | 3.23 µM (inactive) | 14.9 µM (inactive) | 16.9 µM (inactive) | 10.4 µM (inactive) | 12.6 µM (inactive) | 17.7 µM (inactive)
COc1c(O)cc(/C=C/c2cc(O)cc3c2[C@@]2(C(=O)O3)c3c(O)cc(O)cc3OC2c2cccc(O)c2)cc1O (stereo partly specified) | 30.5 µM (inactive) | 44.2 µM (inactive) | 94.6 µM (inactive) | 30.5 | > 100 µM (inactive) | 98.4 µM (inactive) | 65.9 µM (inactive) | 65.3 µM (inactive) | 16.2 µM (inactive) | 28 µM (inactive) | – | – | 1.57 µM (inactive) | > 100 µM (inactive) | 1.3 µM (inactive) | – | 43.7 µM (inactive) | 54 µM (inactive) | 26.1 µM (inactive) | > 100 µM (inactive)
Cc1ccc(NCc2nnc3c(-c4ccccc4)nc4ccccc4n23)cc1 | 15.1 µM (inactive) | 39.3 µM (inactive) | 32.6 µM (inactive) | 38.5 | 24.5 µM (inactive) | 30.1 µM (inactive) | 3.36 µM (inactive) | 13 µM (inactive) | 17.5 µM (inactive) | 14.4 µM (inactive) | – | 44 µM (inactive) | 13 µM (inactive) | 36 µM (inactive) | 16 µM (inactive) | 39.9 µM (inactive) | 23.5 µM (inactive) | 49.7 µM (inactive) | – | 37.2 µM (inactive)
CC(=O)O[C@H]1[C@H](OC(C)=O)[C@@H](CN=[N+]=[N-])OCO[C@@H]1CN=[N+]=[N-] | > 100 µM (inactive) | > 100 µM (inactive) | > 100 µM (inactive) | > 100 | > 100 µM (inactive) | – | > 100 µM (inactive) | > 100 µM (inactive) | > 100 µM (inactive) | > 100 µM (inactive) | > 100 µM (inactive) | > 100 µM (inactive) | > 100 µM (inactive) | > 100 µM (inactive) | > 100 µM (inactive) | > 100 µM (inactive) | > 100 µM (inactive) | – | – | > 100 µM (inactive)
CC1(C)COCN1COC1CCCCC1 | 4.91 µM (inactive) | > 100 µM (inactive) | > 100 µM (inactive) | > 100 | > 100 µM (inactive) | > 100 µM (inactive) | > 100 µM (inactive) | 92.7 µM (inactive) | > 100 µM (inactive) | – | 5.08 µM (inactive) | > 100 µM (inactive) | 20.1 µM (inactive) | > 100 µM (inactive) | 24.1 µM (inactive) | > 100 µM (inactive) | – | > 100 µM (inactive) | > 100 µM (inactive) | > 100 µM (inactive)
C=C1CCCCCCCCCCC1[S+]([O-])c1ccccc1 (stereo unspecified) | – | – | 38.6 µM (inactive) | 41.7 | 24.5 µM (inactive) | > 100 µM (inactive) | > 100 µM (inactive) | 33.8 µM (inactive) | 16 µM (inactive) | 19.1 µM (inactive) | – | 44.7 µM (inactive) | 25.2 µM (inactive) | 47.1 µM (inactive) | 21.8 µM (inactive) | 49.8 µM (inactive) | 28.8 µM (inactive) | 34.1 µM (inactive) | 18.2 µM (inactive) | > 100 µM (inactive)
COc1ccc(S(=O)(=O)Nc2ccc(-c3csc(N4C(=O)/C(=C/c5cccs5)N=C4c4ccccc4)n3)cc2)cc1Cl | – | 50.9 µM (inactive) | 24.3 µM (inactive) | 24.9 | 32.4 µM (inactive) | > 100 µM (inactive) | 19.9 µM (inactive) | 38.7 µM (inactive) | 30.5 µM (inactive) | 24.5 µM (inactive) | 44.8 µM (inactive) | 65.5 µM (inactive) | 28.6 µM (inactive) | 46.3 µM (inactive) | 32.8 µM (inactive) | > 100 µM (inactive) | 37 µM (inactive) | 43.6 µM (inactive) | 28.1 µM (inactive) | 32.3 µM (inactive)
Cc1ccnc2c1C(=O)C1=C(OC(C)(C)CC1O)C2=O (stereo unspecified) | 2.97 µM (inactive) | 2.87 µM (inactive) | 15.3 µM (inactive) | 2.38 | 2.97 µM (inactive) | 6.01 µM (inactive) | 4.89 µM (inactive) | 2.99 µM (inactive) | 3.03 µM (inactive) | 2.41 µM (inactive) | – | 6.08 µM (inactive) | 2.03 µM (inactive) | 1.74 µM (inactive) | 3.9 µM (inactive) | 8.26 µM (inactive) | 2.56 µM (inactive) | 2.67 µM (inactive) | 2.2 µM (inactive) | 1.27 µM (inactive)
Cc1ccc(S(=O)(=O)Nc2nc3ccccc3c(=O)n2C2CCCCC2)cc1 | > 100 µM (inactive) | > 100 µM (inactive) | > 100 µM (inactive) | > 100 | 78.3 µM (inactive) | 81.3 µM (inactive) | > 100 µM (inactive) | > 100 µM (inactive) | > 100 µM (inactive) | 57.9 µM (inactive) | 53.1 µM (inactive) | > 100 µM (inactive) | > 100 µM (inactive) | > 100 µM (inactive) | > 100 µM (inactive) | > 100 µM (inactive) | > 100 µM (inactive) | 76.7 µM (inactive) | > 100 µM (inactive) | –
C=C(C)C1CC[C@@](C)(O)[C@H](C#N)C1 (stereo partly specified) | > 100 µM (inactive) | > 100 µM (inactive) | > 100 µM (inactive) | > 100 | > 100 µM (inactive) | > 100 µM (inactive) | > 100 µM (inactive) | > 100 µM (inactive) | – | > 100 µM (inactive) | 44.5 µM (inactive) | > 100 µM (inactive) | > 100 µM (inactive) | > 100 µM (inactive) | > 100 µM (inactive) | > 100 µM (inactive) | > 100 µM (inactive) | > 100 µM (inactive) | > 100 µM (inactive) | > 100 µM (inactive)
Cc1n[nH]c(=O)n1Nc1ccccc1 | > 100 µM (inactive) | > 100 µM (inactive) | – | > 100 | > 100 µM (inactive) | > 100 µM (inactive) | > 100 µM (inactive) | > 100 µM (inactive) | > 100 µM (inactive) | > 100 µM (inactive) | > 100 µM (inactive) | > 100 µM (inactive) | > 100 µM (inactive) | > 100 µM (inactive) | > 100 µM (inactive) | > 100 µM (inactive) | > 100 µM (inactive) | > 100 µM (inactive) | > 100 µM (inactive) | > 100 µM (inactive)
COC(=O)CCC(=O)NC1=C(NCc2ccccc2)C(=O)c2ccccc2C1=O | 35.8 µM (inactive) | 19.9 µM (inactive) | 67.9 µM (inactive) | 17 | 23.4 µM (inactive) | 26.2 µM (inactive) | 34 µM (inactive) | 33.9 µM (inactive) | 17.7 µM (inactive) | 21.8 µM (inactive) | 78.2 µM (inactive) | 85.1 µM (inactive) | 27.9 µM (inactive) | 16.6 µM (inactive) | 34 µM (inactive) | 29.5 µM (inactive) | 21.8 µM (inactive) | 3.95 µM (inactive) | 32.6 µM (inactive) | –
COC(=O)c1cc2c(cc1Cl)Sc1nnc(Nc3ccc(C)cc3)n1S2(=O)=O | 3.78 µM (inactive) | – | 15.2 µM (inactive) | 3.97 | 10.6 µM (inactive) | 10.4 µM (inactive) | 1.75 µM (inactive) | 5.13 µM (inactive) | 2.15 µM (inactive) | 3.46 µM (inactive) | – | 12.1 µM (inactive) | 2.12 µM (inactive) | 12.2 µM (inactive) | 2.94 µM (inactive) | 17.1 µM (inactive) | – | 2.19 µM (inactive) | 10.5 µM (inactive) | 11 µM (inactive)
